Results from ChEMBL document CHEMBL1909046, “DrugMatrix in vitro pharmacology data”.

Tests used:
[1] = biological target: T1, Muscarinic acetylcholine receptor M5 (Homo sapiens, UniProt P08912); type: cell membranes, CHO-K1, Membrane; details: cho-k1; further: in other assays of this panel Not Active means under 50% inhibition at 10 µM
T1 sequence (P08912 whole entry): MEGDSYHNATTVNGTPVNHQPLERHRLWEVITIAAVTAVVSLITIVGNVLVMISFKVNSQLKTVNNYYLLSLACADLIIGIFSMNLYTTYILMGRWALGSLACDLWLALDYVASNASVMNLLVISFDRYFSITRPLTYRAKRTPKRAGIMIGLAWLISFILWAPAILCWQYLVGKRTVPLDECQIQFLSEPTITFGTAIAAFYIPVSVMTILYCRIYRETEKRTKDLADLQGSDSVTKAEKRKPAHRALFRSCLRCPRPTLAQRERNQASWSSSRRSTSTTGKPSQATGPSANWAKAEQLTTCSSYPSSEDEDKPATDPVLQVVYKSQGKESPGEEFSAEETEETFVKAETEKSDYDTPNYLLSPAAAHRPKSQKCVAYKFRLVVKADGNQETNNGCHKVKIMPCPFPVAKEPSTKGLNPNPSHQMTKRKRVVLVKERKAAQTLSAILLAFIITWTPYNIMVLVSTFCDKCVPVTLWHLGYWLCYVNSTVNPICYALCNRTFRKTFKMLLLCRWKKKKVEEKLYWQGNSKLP

[2] = DRUGMATRIX: GABAA, Chloride Channel, TBOB radioligand binding (ligand: [3H] TBOB); type: cell membranes, Rattus norvegicus, Wistar, Cerebral cortex, Membrane; details: Not Active = under 50% inhibition at 10 µM
[3] = DRUGMATRIX: Imidazoline I2, Central radioligand binding (ligand: [3H] Idazoxan); type: cell membranes, Rattus norvegicus, Wistar, Cerebral cortex, Membrane; details: Not Active = under 50% inhibition at 10 µM
[4] = biological target: Aldo-keto reductase family 1 member B1 (Rattus norvegicus, UniProt P07943); type: tissue-based, Lens of camera-type eye;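 further: inhibition of aldose reductase enzyme activity, measured with DL-glyceraldehyde as the substrate; in other assays of this panel Not Active means under 50% inhibition at 10 µM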
Melanocortin receptor 4 = Melanocortin receptor 4 (Homo sapiens, UniProt P32245); type: cell membranes, Membrane; details: hek293; further: in other assays of this panel Not Active means under 50% inhibition at 10 µM
Adenosine receptor A1 = biological target: T2, Adenosine receptor A1 (Homo sapiens, UniProt P30542); type: cell membranes, CHO, Membrane; details: cho;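 further: radioligand binding assay at the adenosine A1 receptor, with DPCPX serving as the labelled ligand; in other assays of this panel Not Active means under 50% inhibition at 10 µM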
T2 sequence (P30542 whole entry): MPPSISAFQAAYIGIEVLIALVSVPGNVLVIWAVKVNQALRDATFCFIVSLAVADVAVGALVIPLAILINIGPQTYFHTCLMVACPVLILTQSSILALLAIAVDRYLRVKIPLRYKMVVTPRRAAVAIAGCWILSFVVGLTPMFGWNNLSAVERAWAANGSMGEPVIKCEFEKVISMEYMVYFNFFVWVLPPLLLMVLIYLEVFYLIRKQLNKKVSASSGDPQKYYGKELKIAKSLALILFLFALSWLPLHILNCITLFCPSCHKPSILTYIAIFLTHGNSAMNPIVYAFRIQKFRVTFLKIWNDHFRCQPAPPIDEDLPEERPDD

[5] = DRUGMATRIX: Platelet-Derived Growth Factor (PDGF) radioligand binding (ligand: [125I] PDGF); type: cell-based; details: nih3t3; Not Active = under 50% inhibition at 10 µM
[6] = DRUGMATRIX: Glutamate, NMDA, Agonism radioligand binding (ligand: [3H] CGP-39653); type: cell membranes, Rattus norvegicus, Wistar, Cerebral cortex, Membrane; details: Not Active = under 50% inhibition at 10 µM
Substance-K receptor = biological target: T3, Substance-K receptor (Homo sapiens, UniProt P21452); type: cell membranes, CHO, Membrane; details: cho; further: in other assays of this panel Not Active means under 50% inhibition at 10 µM
T3 sequence (P21452 whole entry): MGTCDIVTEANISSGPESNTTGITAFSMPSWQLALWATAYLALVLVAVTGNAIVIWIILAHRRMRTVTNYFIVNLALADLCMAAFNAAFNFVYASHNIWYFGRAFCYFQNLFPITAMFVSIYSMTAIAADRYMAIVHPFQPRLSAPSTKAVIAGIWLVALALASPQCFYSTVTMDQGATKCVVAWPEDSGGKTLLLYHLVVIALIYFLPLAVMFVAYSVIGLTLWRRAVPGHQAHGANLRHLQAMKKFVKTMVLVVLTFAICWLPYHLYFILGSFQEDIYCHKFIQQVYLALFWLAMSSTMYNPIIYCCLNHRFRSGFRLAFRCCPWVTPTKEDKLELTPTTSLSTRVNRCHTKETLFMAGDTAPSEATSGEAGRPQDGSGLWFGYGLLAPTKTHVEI

[7] = DRUGMATRIX: Nicotinic Acetylcholine radioligand binding (ligand: [125I] Epibatidine); type: cell membranes, Membrane; details: imr-32; Not Active = under 50% inhibition at 10 µM
[8] = biological target: T4, 5-hydroxytryptamine receptor 2C (Homo sapiens, UniProt P28335); experiment: DRUGMATRIX: Serotonin (5-Hydroxytryptamine) 5-HT2C radioligand binding (ligand: [3H] Mesulergine); type: cell membranes, CHO-K1, Membrane; details: cho-k1; Not Active = under 50% inhibition at 10 µM
T4 sequence (P28335 whole entry): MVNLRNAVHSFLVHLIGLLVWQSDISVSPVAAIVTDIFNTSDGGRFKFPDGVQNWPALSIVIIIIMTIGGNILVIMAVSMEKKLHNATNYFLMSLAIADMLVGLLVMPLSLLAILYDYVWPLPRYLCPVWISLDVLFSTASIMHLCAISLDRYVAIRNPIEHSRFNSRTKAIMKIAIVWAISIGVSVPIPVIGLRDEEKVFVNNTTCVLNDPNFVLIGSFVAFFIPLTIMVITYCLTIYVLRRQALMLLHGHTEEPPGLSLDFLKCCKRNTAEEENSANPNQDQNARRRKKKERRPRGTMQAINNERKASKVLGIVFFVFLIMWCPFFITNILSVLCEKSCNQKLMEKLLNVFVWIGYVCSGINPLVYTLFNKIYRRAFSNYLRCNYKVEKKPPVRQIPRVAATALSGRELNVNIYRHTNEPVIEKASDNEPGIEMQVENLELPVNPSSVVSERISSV

[9] = biological target: T5, Alpha-1A adrenergic receptor (Rattus norvegicus, UniProt P43140); experiment: DRUGMATRIX: Alpha-1A adrenergic receptor radioligand binding (ligand: prazosin); type: cell membranes, Wistar, Submaxillary gland, Membrane; details: Not Active = under 50% inhibition at 10 µM
T5 sequence (P43140 whole entry): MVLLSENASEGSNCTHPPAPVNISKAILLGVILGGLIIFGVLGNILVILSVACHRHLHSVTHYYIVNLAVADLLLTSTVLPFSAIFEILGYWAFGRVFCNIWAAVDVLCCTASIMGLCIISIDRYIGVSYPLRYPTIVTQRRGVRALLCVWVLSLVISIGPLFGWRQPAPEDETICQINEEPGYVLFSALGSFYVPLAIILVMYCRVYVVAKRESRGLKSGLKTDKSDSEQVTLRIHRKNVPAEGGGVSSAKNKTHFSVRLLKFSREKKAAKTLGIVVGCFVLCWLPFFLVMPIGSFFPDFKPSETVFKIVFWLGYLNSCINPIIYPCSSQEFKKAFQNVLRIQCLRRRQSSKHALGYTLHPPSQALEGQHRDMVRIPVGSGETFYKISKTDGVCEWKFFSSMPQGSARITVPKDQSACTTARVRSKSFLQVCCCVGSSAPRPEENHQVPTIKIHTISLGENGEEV

Sequence of Melanocortin receptor 4 (P32245 whole entry): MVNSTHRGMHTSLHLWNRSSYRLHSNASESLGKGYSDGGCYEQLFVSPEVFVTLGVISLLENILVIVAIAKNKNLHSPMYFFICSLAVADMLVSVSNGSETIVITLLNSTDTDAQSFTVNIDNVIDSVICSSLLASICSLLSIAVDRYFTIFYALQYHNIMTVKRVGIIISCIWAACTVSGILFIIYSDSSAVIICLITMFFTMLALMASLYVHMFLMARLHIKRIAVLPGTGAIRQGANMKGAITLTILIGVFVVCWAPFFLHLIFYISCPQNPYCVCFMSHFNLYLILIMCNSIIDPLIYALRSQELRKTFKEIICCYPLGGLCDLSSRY

CN[C@@H]1[C@@H](O)[C@@H](O[C@@H]2[C@@H](O)[C@H](O[C@H]3OC(CN)=CC[C@H]3N)[C@@H](N)C[C@H]2N)OC[C@]1(C)O [SISOMICIN]
Not Active: IC50 [1] | IC50 [2] | Ki [2] | IC50 [3] | Ki [3] | IC50 [4] | IC50 (Melanocortin receptor 4) | IC50 (Adenosine receptor A1) | IC50 [5] | Ki [5] | IC50 [6] | Ki [6] | IC50 (Substance-K receptor) | IC50 [7] | Ki [7] | IC50 [8] | IC50 [9]

NNc1ccccc1 [PHENYLHYDRAZINE]
Not Active: IC50 [1] | IC50 [2] | Ki [2] | IC50 [3] | Ki [3] | IC50 [4] | IC50 (Melanocortin receptor 4) | IC50 (Adenosine receptor A1) | IC50 [5] | Ki [5] | IC50 [6] | Ki [6] | IC50 (Substance-K receptor) | IC50 [7] | Ki [7] | IC50 [8] | IC50 [9]
